Consider 19 compounds from patent publication US7691848B2, “Pyrrolobenzodiazepine arylcarboxamides and derivatives thereof as follicle-stimulating hormone receptor antagonists” (Wyeth, priority 2005, dated 2010).

What is called IC50 is the concentration that inhibits the measured activity by half. What is called melting point is the temperature of the solid-liquid transition. As usually defined, the inhibition is the share of the control response that was lost under treatment.

One data set addresses T1, human FSH receptor (Homo sapiens, UniProt P23945).
T1 construct: host or cells: CHO-K1 (CHO FSH-R 6CRE-Luc, 1D7 cells)
T1 sequence (P23945 18-695): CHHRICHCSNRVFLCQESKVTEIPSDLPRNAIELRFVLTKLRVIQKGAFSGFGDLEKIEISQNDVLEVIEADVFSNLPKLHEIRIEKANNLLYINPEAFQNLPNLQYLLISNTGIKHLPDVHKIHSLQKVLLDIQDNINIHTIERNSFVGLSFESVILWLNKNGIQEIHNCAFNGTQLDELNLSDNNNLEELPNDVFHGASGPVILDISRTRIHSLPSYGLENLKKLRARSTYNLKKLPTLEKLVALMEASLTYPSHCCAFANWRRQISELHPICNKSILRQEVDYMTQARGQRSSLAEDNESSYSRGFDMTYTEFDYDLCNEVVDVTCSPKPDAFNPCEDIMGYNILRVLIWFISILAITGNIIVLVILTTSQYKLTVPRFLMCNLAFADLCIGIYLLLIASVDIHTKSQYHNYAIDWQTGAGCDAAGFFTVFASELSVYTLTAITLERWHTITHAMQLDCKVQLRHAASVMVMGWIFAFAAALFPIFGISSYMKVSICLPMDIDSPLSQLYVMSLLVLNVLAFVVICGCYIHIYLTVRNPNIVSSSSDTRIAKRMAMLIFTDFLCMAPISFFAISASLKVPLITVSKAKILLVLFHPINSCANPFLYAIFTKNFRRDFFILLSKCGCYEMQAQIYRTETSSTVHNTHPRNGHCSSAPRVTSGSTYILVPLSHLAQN
Description: Follicle-Stimulating Hormone Receptor-Dependent Cre-Luciferase Reporter Gene Assay (CHO FSH-R 6CRE-Luc cells). Format: cell-based. Conditions: for IC50: dose-response format, in presence of EC50 of purified human FSH. An outline of the steps:
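CHO-K1 cells stably expressing human FSH receptor and a 6×CRE-driven luciferase reporter; compounds in growth medium with 0.2% DMSO, incubated 4 h at 37 °C. Luciferase measured by chemiluminescence (RLU/sec/well); 2-dose results given as percent inhibition of the response to an EC50 concentration of FSH.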

For another data set, the target named is T2, hFSH-R (Homo sapiens, UniProt P23945).
T2 construct: expressed in transfected cells; host or cells: CHO-3D2 cells (CHO-K1 parental line)
T2 sequence (P23945 18-695): T1 sequence (P23945 18-695)
Briefly: cAMP accumulation (RIA) in CHO-3D2 cells (hFSH-R), hFSH-induced. Format: cell-based. Conditions: for Emax: read-out: cAMP % efficacy. The procedure:
In Vitro Bio-Assay, Selectivity and Dependency of Agonists and Antagonists to the FSH Receptor
Compound Vehicle: Stock compounds were solubilized in 100% DMSO (Sigma-Aldrich Chemical Co., St. Louis, Mo.) at a concentration of 30 mM. The compounds subsequently were diluted in sterile assay medium consisting of Opti-MEM® I (Invitrogen/Life Technologies, Carlsbad, Calif.) with 0.1% (w/v) BSA (Sigma-Aldrich) prior to use in the bio-assay. The final concentration of DMSO in the assay was 0.1%.
Plated cells are then incubated at 37° C. in a humidified 5% CO2/95% air atmosphere.
Assay: On the day of the assay, cells were washed three times with 100 μl/well of assay medium consisting of Opti-MEM® I (Invitrogen/Life Technologies) with 0.1% (w/v) BSA (Sigma-Aldrich). Medium was removed and 100 μl of assay medium was added to each well. Plates were incubated for an additional 30 minutes at 37° C. […] Reactions were terminated by the addition of 50 μl of 0.2N hydrochloric acid to each well and cAMP-accumulation was measured by radioimmunoassay (RIA) using a commercially available kit (Amersham Biosciences, Piscataway, N.J.).
All test compounds were evaluated in a dose-response paradigm ranging from 0.01 to 30 μM. Controls and test compounds were evaluated in quadruplicate in a 96-well format.
Along with the test compounds, FSH also was run as a positive control in the agonist mode using concentrations ranging from 0.1-1000 ng/ml.
Data were analyzed by one-way analysis of variance and significant differences between treatments and control determined by Least Significant Difference test.
Test compounds were compared to the effect of purified human FSH.
(Changes in cAMP serve as a functional read-out for many G protein-coupled receptors.)

In the case of `Cc1ccc(CNC(=O)c2ccc3n2Cc2ccccc2N(C(=O)c2ccc(-c4ccccc4C)c(C)c2)C3)cc1` [Example 14], the melting point fell in the range of 179 to 181 °C. Also, the IC50 at human FSH receptor came out at 1710 nM. For the same compound, at hFSH-R, the IC50 turned out to be 2600 nM and the Emax was 86%.
Regarding `Cc1ccccc1-c1ccc(C(=O)N2Cc3ccc(C(=O)NCc4ccccc4)n3Cc3ccccc32)cc1C` [Example 15], the melting point fell in the range of 138 to 141 °C. In addition, the concentration for half-maximal inhibition (IC50) at human FSH receptor is 2600 nM. For the same compound, on hFSH-R, the half-inhibitory concentration (IC50) was 400 nM and the Emax was found to be 90%.
On to `Cc1ccccc1-c1ccc(C(=O)N2Cc3ccc(C(=O)NCc4cccc(C(F)(F)F)c4)n3Cc3ccccc32)cc1C` [Example 16], for which the melting point fell in the range of 171 to 173 °C. In addition, the concentration for half-maximal inhibition (IC50) at human FSH receptor stood at 8500 nM. On hFSH-R, the IC50 came out at 14000 nM and the Emax amounted to 65%.
Turning to `Cc1ccccc1CNC(=O)c1ccc2n1Cc1ccccc1N(C(=O)c1ccc(-c3ccccc3C)c(C)c1)C2` [Example 17], the melting point lay within 128 to 130 °C. Moreover, the IC50 at human FSH receptor came to 6390 nM. Moreover, on hFSH-R, the IC50 turned out to be 2600 nM and the Emax is 88%.
On to `Cc1ccccc1-c1ccc(C(=O)N2Cc3ccc(C(=O)NCc4ccc(Cl)cc4)n3Cc3ccccc32)cc1C` [Example 18], for which the melting point fell in the range of 196 to 197 °C. Moreover, the inhibition at 30 µM at human FSH receptor (2-dose format, concentration in parentheses 30 μM, inhibition of the response to EC50 of FSH) was 58%. Further, at hFSH-R, the IC50 was > 30000 nM.
In turn, `COc1cc(CNC(=O)c2ccc3n2Cc2ccccc2N(C(=O)c2ccc(-c4ccccc4C)c(C)c2)C3)cc(OC)c1` [Example 20] had a melting point of 183 to 184 °C. Besides, at human FSH receptor, the concentration for half-maximal inhibition (IC50) is 12000 nM. Moreover, at hFSH-R, the IC50 was > 30000 nM.
`Cc1ccc(CNC(=O)c2ccc3n2Cc2ccccc2N(C(=O)c2ccc(-c4ccccc4C)c(C)c2)C3)c(C)c1` [Example 21]: the melting point was 159 to 161 °C. Besides, the half-inhibitory concentration (IC50) on human FSH receptor was 6200 nM. The IC50 on hFSH-R was > 30000 nM.
In turn, `Cc1cccc(CNC(=O)c2ccc3n2Cc2ccccc2N(C(=O)c2ccc(-c4ccccc4C)c(C)c2)C3)c1` [Example 22] displayed a melting point of 130 to 132 °C. At human FSH receptor, the IC50 is 2880 nM. For the same compound, at hFSH-R, the IC50 worked out at 3000 nM and the Emax was determined as 62%.
In turn, `Cc1ccccc1-c1ccc(C(=O)N2Cc3ccc(C(=O)NCc4ccc5c(c4)OCO5)n3Cc3ccccc32)cc1C` [Example 23] showed a melting point of 149 to 151 °C. Besides, the 50% inhibitory concentration (IC50) on human FSH receptor is 1410 nM. Moreover, at hFSH-R, the IC50 was determined as 7700 nM and the Emax stood at 77%.
`Cc1ccccc1-c1ccc(C(=O)N2Cc3ccc(C(=O)NCCc4ccc(O)cc4)n3Cc3ccccc32)cc1C` [Example 31]: the melting point is 129 to 131 °C. In addition, the IC50 on human FSH receptor stood at 800 nM. Further, on hFSH-R, the IC50 amounted to 200 nM and the Emax came to 100%.
The compound `Cc1ccccc1-c1ccc(C(=O)N2Cc3ccc(C(=O)NCc4cccc(N)c4)n3Cc3ccccc32)cc1C` [Example 34] came in with a melting point of 105 to 115 °C. Also, on human FSH receptor, the IC50 amounted to 5370 nM. The same compound showed an IC50 against hFSH-R of 2600 nM.
`COc1cc(C(=O)N2Cc3ccc(C(=O)NCc4cccc(C)c4)n3Cc3ccccc32)ccc1-c1ccccc1C` [Example 37, 10-[(2-METHOXY-2′-METHYL-1,1′-BIPHENYL-4-YL)CARBONYL]-N-(3-METHYLBENZYL)-10,11-DIHYDRO-5H-PYRROLO[2,1-C][1,4]BENZODIAZEPINE-3-CARBOXAMIDE] came in with a melting point of 165 to 166 °C. In addition, the IC50 on human FSH receptor is 4030 nM. Also, on hFSH-R, the IC50 came to 700 nM and the Emax stood at 80%.
For the compound `COc1cc(C(=O)N2Cc3ccc(C(=O)NCc4ccc(C)cc4)n3Cc3ccccc32)ccc1-c1ccccc1C` [Example 38, 10-[(2-METHOXY-2′-METHYL-1,1′-BIPHENYL-4-YL)CARBONYL]-N-(4-METHYLBENZYL)-10,11-DIHYDRO-5H-PYRROLO[2,1-C][1,4]BENZODIAZEPINE-3-CARBOXAMIDE], the melting point is 179 to 180 °C. The IC50 at human FSH receptor is 1690 nM. At hFSH-R, the IC50 is 500 nM and the Emax worked out at 83%.
On to `COc1cc(C(=O)N2Cc3ccc(C(=O)NCc4ccc5c(c4)OCO5)n3Cc3ccccc32)ccc1-c1ccccc1C` [Example 40], for which the melting point was 167 to 168 °C. In addition, the IC50 at human FSH receptor is 1050 nM. Moreover, at hFSH-R, the half-inhibitory concentration (IC50) turned out to be 400 nM and the Emax was 90%.
`COc1cc(C(=O)N2Cc3ccc(C(=O)NCc4cccc(C(F)(F)F)c4)n3Cc3ccccc32)ccc1-c1ccccc1C` [Example 42, 10-[(2-METHOXY-2′-METHYL-1,1′-BIPHENYL-4-YL)CARBONYL]-N-[3-(TRIFLUOROMETHYL)BENZYL]-10,11-DIHYDRO-5H-PYRROLO[2,1-C][1,4]BENZODIAZEPINE-3-CARBOXAMIDE] returned a melting point of 176 to 177 °C. In addition, on human FSH receptor, the half-maximal inhibitory concentration (IC50) is 4330 nM. Besides, at hFSH-R, the half-inhibitory concentration (IC50) was 6300 nM and the Emax worked out at 74%.
For the compound `COc1cc(C(=O)N2Cc3ccc(C(=O)NCc4ccccc4)n3Cc3ccccc32)ccc1-c1ccccc1C` [Example 44, N-BENZYL-10-[(2-METHOXY-2′-METHYL-1,1′-BIPHENYL-4-YL)CARBONYL]-10,11-DIHYDRO-5H-PYRROLO[2,1-C][1,4]BENZODIAZEPINE-3-CARBOXAMIDE], the melting point fell in the range of 170 to 174 °C. For the same compound, the IC50 at human FSH receptor worked out at 1350 nM. Besides, on hFSH-R, the IC50 was > 30000 nM.
In turn, `COc1cc(C(=O)N2Cc3ccc(C(=O)NCCc4ccc(O)cc4)n3Cc3ccccc32)ccc1-c1ccccc1C` [Example 55, N-[2-(4-HYDROXYPHENYL)ETHYL]-10-[(2-METHOXY-2′-METHYL-1,1′-BIPHENYL-4-YL)CARBONYL]-10,11-DIHYDRO-5H-PYRROLO[2,1-C][1,4]BENZODIAZEPINE-3-CARBOXAMIDE] gave a melting point of 190 to 194 °C. Also, the IC50 on human FSH receptor was > 30000 nM. Also, on hFSH-R, half-maximal inhibition (IC50) was put at 13000 nM and the Emax came to 60%.
`COc1cc(C(=O)N2Cc3ccc(C(=O)NCc4ccc(F)cc4)n3Cc3ccccc32)ccc1-c1ccccc1C` [Example 60, N-(4-FLUOROBENZYL)-10-[(2-METHOXY-2′-METHYL-1,1′-BIPHENYL-4-YL)CARBONYL]-10,11-DIHYDRO-5H-PYRROLO[2,1-C][1,4]BENZODIAZEPINE-3-CARBOXAMIDE] yielded a melting point of 214 to 215 °C. The IC50 at human FSH receptor was determined as 1130 nM. Further, at hFSH-R, it took 400 nM to reach half-maximal inhibition (IC50) and the Emax worked out at 95%.
Take `COc1cc(C(=O)N2Cc3ccc(C(=O)NCc4ccc5c(c4)OCCO5)n3Cc3ccccc32)ccc1-c1ccccc1C` [Example 64]: the melting point lay in the range of 153 to 155 °C. Further, the IC50 at human FSH receptor is 3400 nM. For the same compound, at hFSH-R, half-maximal inhibition (IC50) required 1300 nM and the Emax was 79%.
